Laboratory results as given in article PMC11744668, “2-Cyanopyrimidine-Containing Molecules for N-Terminal Selective Cyclization of Phage-Displayed Peptides” (ACS Chemical Biology, 2025).

What was measured:
CA5C-sfGFP = test: Cyclization of CA5C-sfGFP with linkers (LC-ESI-MS); settings: 100 μM linker, PBS pH 7.4, 1 mM TCEP; for cyclization of CA5C-sfGFP: 3 h, 22 °C (RT), 500 nM protein; for cyclization of CA5C-sfGFP, optimized (in words): 16 h
Experimental: The designed organic linkers were tested for their ability to cyclize a CA5C peptide expressed as an N-terminal fusion to sfGFP (CA5C-sfGFP). Following reduction of the protein with 1 mM TCEP for 30 min, 100 μM compounds were reacted with the reduced CA5C-sfGFP for 3 h in PBS (pH 7.4). Following the reaction, the protein was analyzed via electrospray ionization mass spectrometry (ESI-MS) analysis to determine the desired adduct and any potential side reactions that occurred. […] This is likely due to the electron withdrawing effects of the nitrogen atoms adjacent to the nitrile in the 2-cyanopyrimidine derivatives. […] Following previously established Bayesian deconvolution of the mass spectra,[23] protein masses from each reaction (MW = 28,399 Da) corresponded well with that of the expected cyclic product (MW = 28,399 Da). […] This observed mass matches a TCEP-conjugated product resulting from a previously reported competing phospha-Michael addition of TCEP to the acrylamide moiety.[24] This product has a TCEP-functionalized linker that is nonreactive toward the internal cysteine (Figure 2A,B). Following these initial studies, we then further optimized the cyclization of CA5C-sfGFP using pCAmCP and mCAmCP by varying the reaction time, temperature, and concentration of linkers (Figure 2C).
Purified CA5C-sfGFP was diluted to 500 nM in PBS (pH 7.4) containing 1 mM TCEP and left to incubate for 30 min at 37 °C. Linker (100 μM final concentration) or equivalent amounts of DMSO were then added to the solution, and it reacted at varying times (3 or 16 h) and temperatures (22 or 37 °C). All initial tests for reactivity were performed at 22 °C for 3 h, while linkers pCAmCP and mCAmCP were optimized with the additional conditions. The reaction mixtures were then concentrated and exchanged to ammonium bicarbonate (50 mM, pH 8.0) using an Amicon centrifugal filter (MWCO: 10 kDa). Samples were analyzed using a QExactive Orbitrap LC–MS System (Thermo Fisher) and deconvoluted using UniDec software.[23]

[1] = Peptide cyclization kinetics with model peptide CGK-5; settings: 500 μM CGK-5, 550 μM linker, RT; for cyclization of CGK-5 (in words): ABC buffer pH 7.4, 1 mM TCEP, 2 h, LC-MS; for half-life of the cyclization reaction with CGK-5: ammonium bicarbonate (ABC) buffer, TCEP, HPLC, one-phase association, mean ± 95% CI, at least three independent experiments
Description: While pCAmCP and mCAmCP gave efficient cyclization of the peptide fusion of sfGFP, we looked to further investigate the specificity of the reaction using peptide kinetic assays. To do this, we first established reactivity of the compounds with a model peptide (CGK-5, Figures 3A and S16) that was composed of two cysteines flanking a region tuned for solubility in buffer (GGKGG) and with a tryptophan residue on the C-terminus for UV absorbance. […] To test the specificity of the reaction for the N-terminal cysteine, we synthesized a peptide analogue (CGK-5Abu, Figures 3D–F and S17) that contained 2-aminobutyric acid in place of the N-terminal cysteine. […] Since these reactions occurred at 500 μM of peptide to allow for analysis on the HPLC, we envision this difference will likely be exaggerated when using lower peptide/protein concentrations. Although it is unlikely at neutral pH, the chloroacetamide moiety can possibly react with nucleophilic amino acids other than cysteine. To defuse this concern, we designed a peptide containing a variety of possibly nucleophilic residues (serine, arginine, tyrosine, histidine, and lysine, but not an internal cysteine) adjacent to the N-terminal cysteine (BCP, Figure S18) and let the peptide react with pCAmCP or mCAmCP. […] On the other hand, peptides that contained an internal cysteine were nearly completely reacted with the chloroacetamide after less than 2 h at the same concentrations (Figure 3B,C). This indicates high specificity for the chloroacetamide reacting with an internal cysteine in comparison to other nucleophilic residues at pH 7.4. […] It could be that the side reaction with TCEP may help mask the chloroacetamide after long incubation periods to prevent it from reacting with less reactive nucleophiles.
The peptide (CGK-5 or CGK-5Abu, 5 mM stock in water) was diluted to 500 μM in ammonium bicarbonate buffer (50 mM, pH 7.5) containing 1.2 mM TCEP. Following dilution of the peptide, the organic linker (10 mM in DMSO) was added to a final concentration of 550 μM. The reaction mixture was incubated while being shaken at RT. At each time point (5, 10, 15, 30, 45, 60, 120, and 240 min), 5 μL of reaction mixture was removed, and the reaction was quenched by the addition of 5 μL of 100 mM cysteine. Following dilution with 20 μL of water, the sample was then analyzed on a Shimadzu HPLC with an LCMS-2020 mass spectrometer attached (10–40% ACN gradient in H2O over 6 min, 0.1% formic acid, 1 mL/min flow rate, Shimadzu C18 250 × 4.6 mm, 5 μm). Peaks corresponding to the cyclized and unreacted forms were then integrated on the Shimadzu LabSolutions software, plotted in GraphPad Prism, and fitted using a one-phase association fitting parameter to determine reaction half-lives.

[2] = Specificity of linker reaction with BCP peptide (nucleophilic residues, no internal cysteine); settings: 500 µM BCP, 550 µM linker, 50 mM NH4HCO3, 1.2 mM TCEP, pH 7.5, 4 h
Description: While pCAmCP and mCAmCP gave efficient cyclization of the peptide fusion of sfGFP, we looked to further investigate the specificity of the reaction using peptide kinetic assays. To do this, we first established reactivity of the compounds with a model peptide (CGK-5, Figures 3A and S16) that was composed of two cysteines flanking a region tuned for solubility in buffer (GGKGG) and with a tryptophan residue on the C-terminus for UV absorbance. […] To test the specificity of the reaction for the N-terminal cysteine, we synthesized a peptide analogue (CGK-5Abu, Figures 3D–F and S17) that contained 2-aminobutyric acid in place of the N-terminal cysteine. […] Since these reactions occurred at 500 μM of peptide to allow for analysis on the HPLC, we envision this difference will likely be exaggerated when using lower peptide/protein concentrations. Although it is unlikely at neutral pH, the chloroacetamide moiety can possibly react with nucleophilic amino acids other than cysteine. To defuse this concern, we designed a peptide containing a variety of possibly nucleophilic residues (serine, arginine, tyrosine, histidine, and lysine, but not an internal cysteine) adjacent to the N-terminal cysteine (BCP, Figure S18) and let the peptide react with pCAmCP or mCAmCP. […]

| Structure (SMILES) | cyclization of CA5C-sfGFP (CA5C-sfGFP) [%] | cyclization of CA5C-sfGFP, optimized (in words) (CA5C-sfGFP) | cyclization of CGK-5 (in words) [1] | half-life of the cyclization reaction with CGK-5 [1] [min] | specificity of chloroacetamide toward nucleophilic residues other than cysteine (in words) [2] |
| --- | --- | --- | --- | --- | --- |
| N#Cc1ncc(NC(=O)CCl)cn1 [pCAmCP, 2-chloro-N-(2-cyanopyrimidin-5-yl)acetamide] | 50 | nearly complete cyclization of CA5C-sfGFP with no significant side reactions observed | nearly complete cyclization of the peptide after 2 h | 23 ± 5 | the chloroacetamide was left intact, with the only observed side reaction being the addition of TCEP to the chloroacetamide |
| N#Cc1nccc(NC(=O)CCl)n1 [mCAmCP, 2-chloro-N-(2-cyanopyrimidin-4-yl)acetamide] | ~70 | nearly complete cyclization of CA5C-sfGFP with no significant side reactions observed | nearly complete cyclization of the peptide after 2 h | 13 ± 3 | the chloroacetamide was left intact, with the only observed side reaction being the addition of TCEP to the chloroacetamide |
